# Source: patent US11324774B2, “Compositions of oral alkaline salts and metabolic acid inducers and uses thereof” (Augusta University Research Institute, Inc., priority 2018, dated 2022)
# System: T-regulatory cells (FOXP3+ T-regs), TH17 cells
# Assay: Circulating T-regulatory and TH17 cells in rats
# Format: in vivo
# Conditions: rats, 4 days in drinking water
structure (smiles),measurement,value
O=C([O-])CC(O)(CC(=O)[O-])C(=O)[O-].[Na+].[Na+].[Na+] [Na Citrate],circulating anti-inflammatory T cells (FOXP3+ T-regs),no effect
